According to patent US12528767B2, “HDAC6 inhibitors and uses thereof” (Eikonizo Therapeutics, Inc., priority 2019, dated 2026):
Read-outs that look alike come from different tables or passages of the source.

Key:
[1] = In vivo assessment of brain penetration in mice (IV 1 mg/kg, plasma and brain levels); conditions: mouse, BL/6 mice; for Kp at 15 min / Kp at 60 min: brain and plasma, brain:plasma; for Kp at 15 min: read-out: Mouse B:P at 15 min; for Kp at 60 min: read-out: Mouse B:P at 60 min
Full length Human HDAC6 = target: T1, Full length Human HDAC6 (Homo sapiens, UniProt Q9UBN7); conditions: for Selectivity (6 v 8) (fold): ratio of HDAC8 IC50/HDAC6 IC50
T1 sequence (Q9UBN7 1-1215): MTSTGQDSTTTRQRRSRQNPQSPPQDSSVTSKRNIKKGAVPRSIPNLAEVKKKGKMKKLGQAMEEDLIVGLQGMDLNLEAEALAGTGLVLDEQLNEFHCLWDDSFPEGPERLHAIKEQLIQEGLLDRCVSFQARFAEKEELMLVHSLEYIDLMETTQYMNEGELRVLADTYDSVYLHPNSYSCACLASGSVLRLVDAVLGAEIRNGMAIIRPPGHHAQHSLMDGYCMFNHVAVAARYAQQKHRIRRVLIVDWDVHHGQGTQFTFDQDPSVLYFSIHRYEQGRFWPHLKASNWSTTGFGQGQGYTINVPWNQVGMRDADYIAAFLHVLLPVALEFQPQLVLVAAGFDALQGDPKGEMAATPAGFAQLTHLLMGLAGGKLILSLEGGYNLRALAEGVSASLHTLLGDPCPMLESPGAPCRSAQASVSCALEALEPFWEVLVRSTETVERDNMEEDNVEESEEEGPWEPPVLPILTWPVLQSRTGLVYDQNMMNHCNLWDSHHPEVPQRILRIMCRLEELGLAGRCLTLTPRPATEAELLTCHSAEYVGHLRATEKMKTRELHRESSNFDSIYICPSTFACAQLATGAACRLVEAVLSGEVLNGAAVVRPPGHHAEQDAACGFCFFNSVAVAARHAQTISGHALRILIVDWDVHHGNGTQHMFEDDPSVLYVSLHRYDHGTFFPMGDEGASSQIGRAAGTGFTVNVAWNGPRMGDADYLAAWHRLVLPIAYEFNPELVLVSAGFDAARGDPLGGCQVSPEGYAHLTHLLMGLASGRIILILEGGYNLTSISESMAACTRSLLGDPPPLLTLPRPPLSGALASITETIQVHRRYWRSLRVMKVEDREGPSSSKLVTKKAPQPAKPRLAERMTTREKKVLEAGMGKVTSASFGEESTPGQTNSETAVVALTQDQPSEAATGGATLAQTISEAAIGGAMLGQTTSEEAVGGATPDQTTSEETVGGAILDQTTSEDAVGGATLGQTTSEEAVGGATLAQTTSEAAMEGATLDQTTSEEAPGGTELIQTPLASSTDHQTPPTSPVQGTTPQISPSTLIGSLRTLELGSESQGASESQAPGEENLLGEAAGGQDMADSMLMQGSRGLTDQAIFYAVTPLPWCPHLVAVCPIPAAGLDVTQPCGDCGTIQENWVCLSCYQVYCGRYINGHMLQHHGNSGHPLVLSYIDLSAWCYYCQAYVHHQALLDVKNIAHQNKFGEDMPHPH

Human HDAC7 aa 518-end = target: T2, Human HDAC7 aa 518-end (Homo sapiens, UniProt Q8WUI4)
T2 sequence (Q8WUI4 518-952 limits assumed): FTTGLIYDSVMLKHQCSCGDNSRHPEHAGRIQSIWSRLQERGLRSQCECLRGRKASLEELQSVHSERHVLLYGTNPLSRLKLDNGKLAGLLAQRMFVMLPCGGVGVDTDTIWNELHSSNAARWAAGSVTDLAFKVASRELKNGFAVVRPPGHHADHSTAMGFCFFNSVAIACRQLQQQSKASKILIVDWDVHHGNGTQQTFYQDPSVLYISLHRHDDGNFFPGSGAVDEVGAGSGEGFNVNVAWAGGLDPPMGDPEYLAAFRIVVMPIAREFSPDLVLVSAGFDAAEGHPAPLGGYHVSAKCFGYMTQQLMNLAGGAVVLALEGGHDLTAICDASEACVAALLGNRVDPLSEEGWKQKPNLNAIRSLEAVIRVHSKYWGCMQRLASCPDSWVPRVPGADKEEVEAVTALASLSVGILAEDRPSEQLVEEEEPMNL

Full length Human HDAC8 = target: T3, Full length Human HDAC8 (Homo sapiens, UniProt Q9BY41)
T3 sequence (Q9BY41 1-377): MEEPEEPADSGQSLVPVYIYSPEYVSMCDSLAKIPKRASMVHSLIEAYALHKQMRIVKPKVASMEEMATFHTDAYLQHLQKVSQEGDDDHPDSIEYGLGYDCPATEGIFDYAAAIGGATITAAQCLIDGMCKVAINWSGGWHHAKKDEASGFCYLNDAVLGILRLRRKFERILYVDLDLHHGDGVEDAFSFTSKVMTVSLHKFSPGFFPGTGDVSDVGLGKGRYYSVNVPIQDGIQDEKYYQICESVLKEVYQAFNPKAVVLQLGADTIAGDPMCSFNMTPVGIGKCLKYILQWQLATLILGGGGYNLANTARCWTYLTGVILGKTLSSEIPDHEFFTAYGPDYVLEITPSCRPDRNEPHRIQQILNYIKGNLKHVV

[2] = target: Human HDAC9 a.a. 604-1066 (Homo sapiens, UniProt Q9UKV0)
Full length Human HDAC1 = Full length Human HDAC1 (Homo sapiens, UniProt Q13547)
[3] = system: tubulin acetylation (acTubK40) in undifferentiated SH-SY5Y cells; test: Tubulin acetylation in cells (Western immunoblot); format: cell-based; conditions: Homo sapiens, 4 hours, acetylTubulin/Tubulin ratio
Description: (§1) Compound EC50 Determination for Tubulin- and Histone H3 Acetylation in Cells
(§2) Estimation of the EC50 for exemplary compounds to alter target protein acetylation in undifferentiated SH-SY5Y cells was performed using standard Western immunoblotting methods. […] SH-SY5Y cells were grown to 90% confluency on sterile cell growth plates. 10 mM compound stocks prepared in DMSO and two-fold serial dilutions were prepared from the stock and applied to cells to achieve a 12-point concentration range in cell media from an upper limit of 10 μM to a lower limit of DMSO [zero compound].
(§3) Cells were incubated under normal growth conditions (37° C., 5% CO2) in the presence of compound for 4 hours, then media was aspirated and cells were rinsed two times with 1×DPBS with calcium and magnesium warmed to 37° C. Cells were frozen directly on the plates on a bed of dry ice for 5 min, then stored at −80° C. until protein extraction.
(§4) Protein extraction was performed in RIPA buffer (50 mM Tris-HCL pH 8.0, 150 mM NaCl, 0.5% sodium deoxycholate, 0.1% sodium dodecyl sulfate, 1% NP-40) supplemented with Pierce protease inhibitor mini tables (Thermofisher cat #A32953) exactly as described by the manufacturer. After thawing the plate on a bed of wet ice for 10 minutes, lysis buffer was added to each well (e.g. 100 μL per well of a 24-well plate) and cells scraped from the bottom of each well. Lysates were then sonicated over ice (40% power, 30 pulses of 1 second on, 2 seconds off), centrifuged at 16,000 g for 10 min at 4° C., and the clarified supernatant saved. Protein concentration was determined by BCA assay and at least 3 μg prepared per lane by combining lysate supernatant aliquot with 1/3 total volume of 3× gel loading buffer containing DTT (NEB Cat. #B7703S), heating for 5 minutes at 95° C., briefly centrifuging and then loading on an SDS-PAGE gel.
(§5) Proteins were resolved on a 4-20% Tris-Glycine gel and transferred to PVDF membrane using an iBlot2 dry transfer system. The membrane was then blocked for at least 30 minutes at room temperature in TBST containing 5% milk or 5% bovine serum albumin, then incubated overnight at 4° C. with a single primary antibody from the following table:
(§6) Following primary antibody incubation, membranes were washed, incubated in secondary antibody, washed and incubated in ECL prime western blotting detection reagent (Amersham #RPN223) with membrane exposure and ECL signal capture in a LI-COR Odyssey Imaging system. […] Subsequent densitometry of immunoreactive bands was performed using the ImageStudio software and Microsoft Excel resulting in the following ratios: acetylTubulin/Tubulin and acetyl histone H3K9/histone H3. Raw ratios were uploaded to GraphPad Prism v7.0 with EC50 values modeled using the variable slope equation for log-transformed data [log(agonist) vs response in Prism].

[4] = system: histone H3 acetylation (acH3K9) in undifferentiated SH-SY5Y cells; test: Histone H3 acetylation in cells (Western immunoblot); format: cell-based; conditions: Homo sapiens, 4 hours, acetyl histone H3K9/histone H3 ratio
Description: as §1, §2, §3, §4, §5, §6

[5] = Metabolic stability in liver microsomes: Mouse BL6; format: in vitro ADME; conditions: 1 μM compound, 0.3 mg/mL protein, NADPH, 37° C., read-out: Mouse BL6 Liver Microsome Stability Half-life
Full length Human HDAC10 = target: T4, Full length Human HDAC10 (Homo sapiens, UniProt Q969S8)
T4 sequence (Q969S8 1-669): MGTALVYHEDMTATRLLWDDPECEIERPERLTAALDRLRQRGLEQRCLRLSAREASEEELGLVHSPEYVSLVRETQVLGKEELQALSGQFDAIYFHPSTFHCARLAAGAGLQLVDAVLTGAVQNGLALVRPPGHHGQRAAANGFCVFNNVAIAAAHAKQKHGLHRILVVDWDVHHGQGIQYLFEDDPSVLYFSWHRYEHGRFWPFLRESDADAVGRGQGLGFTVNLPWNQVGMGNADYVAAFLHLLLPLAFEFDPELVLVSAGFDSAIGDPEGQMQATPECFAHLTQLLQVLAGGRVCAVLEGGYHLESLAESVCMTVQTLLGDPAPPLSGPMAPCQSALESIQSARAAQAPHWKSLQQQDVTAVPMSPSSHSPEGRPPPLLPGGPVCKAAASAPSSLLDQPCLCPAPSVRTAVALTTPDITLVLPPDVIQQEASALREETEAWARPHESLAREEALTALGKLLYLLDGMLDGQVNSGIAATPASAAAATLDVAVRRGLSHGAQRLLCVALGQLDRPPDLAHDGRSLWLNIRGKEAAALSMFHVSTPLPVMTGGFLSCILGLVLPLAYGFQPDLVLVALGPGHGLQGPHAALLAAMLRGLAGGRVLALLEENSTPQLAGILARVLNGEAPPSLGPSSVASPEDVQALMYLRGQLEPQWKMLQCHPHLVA

[6] = brain, read-out: Mouse Brain Conc (μM) at 15 min
[7] = brain, read-out: Mouse Brain Conc (μM) at 60 min
[8] = plasma, read-out: Mouse Plasma Conc (μM) at 15 min
[9] = plasma, read-out: Mouse Plasma Conc (μM) at 60 min
[10] = read-out: In vitro enzymatic IC50, HDAC Paralog 8, Table 2
[11] = read-out: In vitro enzymatic IC50, HDAC Paralog 6, Table 2

Human HDAC9 a.a. 604-1066, sequence (Q9UKV0 604-1066 isoform Q9UKV0-5): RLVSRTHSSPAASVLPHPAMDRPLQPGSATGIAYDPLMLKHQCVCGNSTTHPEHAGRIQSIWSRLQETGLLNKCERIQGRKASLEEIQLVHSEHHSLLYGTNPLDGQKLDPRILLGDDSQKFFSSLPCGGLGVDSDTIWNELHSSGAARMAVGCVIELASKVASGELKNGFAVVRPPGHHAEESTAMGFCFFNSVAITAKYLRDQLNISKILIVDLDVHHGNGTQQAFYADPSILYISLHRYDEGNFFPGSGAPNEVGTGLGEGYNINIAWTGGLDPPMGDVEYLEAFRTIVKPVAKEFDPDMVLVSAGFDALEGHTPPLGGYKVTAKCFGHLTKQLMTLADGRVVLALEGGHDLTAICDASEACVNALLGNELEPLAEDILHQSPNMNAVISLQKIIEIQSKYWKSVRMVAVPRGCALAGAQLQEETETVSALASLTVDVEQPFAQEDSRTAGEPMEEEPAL
Full length Human HDAC1, sequence (Q13547 whole entry): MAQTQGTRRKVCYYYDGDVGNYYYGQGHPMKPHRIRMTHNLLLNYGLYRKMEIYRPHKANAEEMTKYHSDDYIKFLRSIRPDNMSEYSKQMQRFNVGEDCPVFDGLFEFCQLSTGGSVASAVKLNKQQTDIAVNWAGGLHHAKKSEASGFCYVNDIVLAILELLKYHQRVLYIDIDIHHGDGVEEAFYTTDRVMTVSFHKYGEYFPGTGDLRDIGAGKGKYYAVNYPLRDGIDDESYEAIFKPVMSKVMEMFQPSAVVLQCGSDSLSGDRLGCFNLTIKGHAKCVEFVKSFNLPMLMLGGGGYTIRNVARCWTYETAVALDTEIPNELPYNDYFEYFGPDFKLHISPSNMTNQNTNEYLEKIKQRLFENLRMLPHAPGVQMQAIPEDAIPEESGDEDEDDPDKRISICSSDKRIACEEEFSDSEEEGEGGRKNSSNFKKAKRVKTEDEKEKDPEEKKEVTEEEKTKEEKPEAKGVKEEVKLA

Row | SMILES | Selectivity (6 v 8) (fold) (Full length Human HDAC6; Table 1, number) | Selectivity (6 v 8) (fold) (Full length Human HDAC6; Table 1, range class) | IC50 (Human HDAC7 aa 518-end) | IC50 (Full length Human HDAC8) | IC50 (Full length Human HDAC6) | other results
1 | O=C(NO)c1ccc2c(c1)C[C@@H]1CCCN1C2 (single isomer, unassigned) [compound 121] | 80.9 fold | III (III: >10-100) |  |  |  | concentration at 15 min [1, 6]: 0.19 µM; concentration at 60 min [1, 7]: 0.06 µM; concentration at 15 min [1, 8]: 0.96 µM; concentration at 60 min [1, 9]: 0.01 µM; Kp at 15 min [1]: 0.19; Kp at 60 min [1]: 5.89
2 | Cn1c2c(c3ccccc31)CCN(Cc1ccc(C(=O)NO)cc1F)C2 [compound 45] |  |  |  | 100 to 1000 nM | 1 to 100 nM | EC50 [3]: 1700 nM; EC50 [4]: > 10000 nM
3 | O=C(NO)c1ccc(CN2C3CCCC2COC3)c(F)c1 [compound 52] | 35.5 fold | III (III: >10-100) |  | 100 to 1000 nM | 1 to 100 nM | half-life at 1 μM [5]: 4.83 h
4 | O=C(NO)c1cc(F)c2c(c1)CCN(C1CC3(COC3)C1)C2 [compound 111] | 461.1 fold | IV (IV: >100-1000) | 10000 to 100000 nM | 10000 to 100000 nM | 1 to 100 nM | IC50 (Full length Human HDAC8; [10]): 10000 to 100000 nM; IC50 (Full length Human HDAC10): 10000 to 100000 nM; IC50 (Full length Human HDAC6; [11]): 1 to 100 nM
5 | O=C(NO)c1cc(F)c2c(c1)CCN(C1CC3(CCC3)C1)C2 [compound 112] | >12414.6 fold | V (V: >1000) | 10000 to 100000 nM | > 100000 nM | 1 to 100 nM | IC50 (Full length Human HDAC8; [10]): > 100000 nM; IC50 (Full length Human HDAC10): > 100000 nM; IC50 (Full length Human HDAC6; [11]): 1 to 100 nM
6 | O=C(NO)c1cc(F)c2c(c1)CN(CC13C4C5C6C4C1C6C53)CC2 (centres unmarked) [compound 116, 2-(cuban-1-ylmethyl)-5-fluoro-N-hydroxy-1,2,3,4-tetrahydroisoquinoline-7-carboxamide] | 11 fold | III (III: >10-100) |  | 100 to 1000 nM | 1 to 100 nM | concentration at 15 min [1, 6]: 0.39 µM; concentration at 60 min [1, 7]: 0 µM; concentration at 15 min [1, 8]: 0.25 µM; concentration at 60 min [1, 9]: 0.02 µM; Kp at 15 min [1]: 1.57; Kp at 60 min [1]: 0

Continued, in another order:

Row | Selectivity (6 v 8) (fold) (Full length Human HDAC6; Table 1, number) | Selectivity (6 v 8) (fold) (Full length Human HDAC6; Table 1, range class) | IC50 (Human HDAC7 aa 518-end) | IC50 (Full length Human HDAC8) | IC50 (Full length Human HDAC6) | SMILES | other results
7 |  |  | 1000 to 10000 nM | 1000 to 10000 nM | 1 to 100 nM | O=C(NO)c1cc(F)c2c(c1)CN1CCC[C@@H]1C2 (single isomer, unassigned) [compound 124] | IC50 [2]: > 100000 nM; IC50 (Full length Human HDAC1): > 100000 nM
8 |  |  | 100 to 1000 nM | 1000 to 10000 nM | 1 to 100 nM | C[C@@H]1C[C@H]2c3c(F)cc(C(=O)NO)cc3CCN2C1 (single isomer, unassigned) [compound 152] | IC50 [2]: 100 to 1000 nM; IC50 (Full length Human HDAC1): 10000 to 100000 nM
